Where two headings read alike, the source gives them in different places.
How the values were obtained:
human TLR8 = human TLR8 (Homo sapiens (Human), UniProt Q9NR97); experiment: TLR8 inhibition reporter assay (HEK-Blue SEAP); details: read-out: TLR8 IC50;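 further: SEAP driven by IFN-β minimal promoter carrying NF-κB and AP-1 sites, compounds dosed 0.05 nM to 50 µM for 22 h, inhibition scaled between agonist-plus-DMSO and reference-inhibitor wells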
human TLR9 = human TLR9 (Homo sapiens (Human), UniProt Q9NR96); experiment: TLR9 inhibition reporter assay (HEK-Blue SEAP); details: read-out: TLR9 IC50;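 further: SEAP driven by an IFN-β minimal promoter with NF-κB and AP-1 sites, read after 22 h, compounds dosed 0.05 nM–50 µM, inhibition scaled between agonist plus DMSO and reference-inhibitor wells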
human TLR7 = human TLR7 (Homo sapiens (Human), UniProt Q9NYK1); experiment: TLR7 inhibition reporter assay (HEK-Blue SEAP); type: cell-based
[1] = HEK-Blue cells overexpressing human TLR8, SEAP reporter, R848 15.9 μM
[2] = HEK-Blue cells overexpressing human TLR9, SEAP reporter, ODN2006 5 nM
[3] = HEK-Blue cells overexpressing human TLR7, SEAP reporter, gardiquimod 7.5 μM
[4] = HEK-Blue human TLR8 cells, R848 15.9 μM
[5] = HEK-Blue human TLR9 cells, ODN2006 5 nM
[6] = HEK-Blue human TLR7 cells, gardiquimod 7.5 μM
[7] = HEK-Blue cells overexpressing human TLR8, R848 15.9 μM stimulation, SEAP reporter
[8] = HEK-Blue cells overexpressing human TLR9, ODN2006 5 nM stimulation, SEAP reporter
[9] = HEK-Blue cells overexpressing human TLR7, gardiquimod 7.5 μM stimulation, SEAP reporter

human TLR9, sequence (Q9NR96 26-1032): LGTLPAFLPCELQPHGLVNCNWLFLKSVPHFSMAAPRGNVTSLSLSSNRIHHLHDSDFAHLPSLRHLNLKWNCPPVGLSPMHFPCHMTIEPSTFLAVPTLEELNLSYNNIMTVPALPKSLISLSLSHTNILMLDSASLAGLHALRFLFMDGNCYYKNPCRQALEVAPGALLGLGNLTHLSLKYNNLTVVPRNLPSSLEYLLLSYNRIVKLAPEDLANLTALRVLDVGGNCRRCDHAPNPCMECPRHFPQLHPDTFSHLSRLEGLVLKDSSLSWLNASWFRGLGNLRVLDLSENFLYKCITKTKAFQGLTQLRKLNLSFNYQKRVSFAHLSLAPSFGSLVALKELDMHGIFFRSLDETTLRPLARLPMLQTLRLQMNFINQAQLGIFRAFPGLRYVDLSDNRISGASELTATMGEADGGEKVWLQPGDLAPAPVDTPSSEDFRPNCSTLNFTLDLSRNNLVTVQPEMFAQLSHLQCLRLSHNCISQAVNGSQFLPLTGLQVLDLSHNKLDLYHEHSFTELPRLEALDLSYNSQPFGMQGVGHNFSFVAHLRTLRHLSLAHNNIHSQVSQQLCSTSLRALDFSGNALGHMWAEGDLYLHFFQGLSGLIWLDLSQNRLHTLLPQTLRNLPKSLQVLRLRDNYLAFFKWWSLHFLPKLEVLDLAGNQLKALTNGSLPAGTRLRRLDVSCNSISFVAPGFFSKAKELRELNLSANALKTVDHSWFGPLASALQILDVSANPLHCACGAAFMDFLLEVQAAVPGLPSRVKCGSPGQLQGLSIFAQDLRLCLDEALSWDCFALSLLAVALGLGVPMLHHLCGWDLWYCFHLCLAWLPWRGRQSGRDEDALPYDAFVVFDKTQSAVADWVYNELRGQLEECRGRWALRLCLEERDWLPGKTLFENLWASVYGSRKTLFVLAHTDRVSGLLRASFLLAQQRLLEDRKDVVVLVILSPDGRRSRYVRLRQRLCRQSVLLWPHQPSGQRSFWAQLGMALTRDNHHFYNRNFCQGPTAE
human TLR7, sequence (Q9NYK1 27-1049): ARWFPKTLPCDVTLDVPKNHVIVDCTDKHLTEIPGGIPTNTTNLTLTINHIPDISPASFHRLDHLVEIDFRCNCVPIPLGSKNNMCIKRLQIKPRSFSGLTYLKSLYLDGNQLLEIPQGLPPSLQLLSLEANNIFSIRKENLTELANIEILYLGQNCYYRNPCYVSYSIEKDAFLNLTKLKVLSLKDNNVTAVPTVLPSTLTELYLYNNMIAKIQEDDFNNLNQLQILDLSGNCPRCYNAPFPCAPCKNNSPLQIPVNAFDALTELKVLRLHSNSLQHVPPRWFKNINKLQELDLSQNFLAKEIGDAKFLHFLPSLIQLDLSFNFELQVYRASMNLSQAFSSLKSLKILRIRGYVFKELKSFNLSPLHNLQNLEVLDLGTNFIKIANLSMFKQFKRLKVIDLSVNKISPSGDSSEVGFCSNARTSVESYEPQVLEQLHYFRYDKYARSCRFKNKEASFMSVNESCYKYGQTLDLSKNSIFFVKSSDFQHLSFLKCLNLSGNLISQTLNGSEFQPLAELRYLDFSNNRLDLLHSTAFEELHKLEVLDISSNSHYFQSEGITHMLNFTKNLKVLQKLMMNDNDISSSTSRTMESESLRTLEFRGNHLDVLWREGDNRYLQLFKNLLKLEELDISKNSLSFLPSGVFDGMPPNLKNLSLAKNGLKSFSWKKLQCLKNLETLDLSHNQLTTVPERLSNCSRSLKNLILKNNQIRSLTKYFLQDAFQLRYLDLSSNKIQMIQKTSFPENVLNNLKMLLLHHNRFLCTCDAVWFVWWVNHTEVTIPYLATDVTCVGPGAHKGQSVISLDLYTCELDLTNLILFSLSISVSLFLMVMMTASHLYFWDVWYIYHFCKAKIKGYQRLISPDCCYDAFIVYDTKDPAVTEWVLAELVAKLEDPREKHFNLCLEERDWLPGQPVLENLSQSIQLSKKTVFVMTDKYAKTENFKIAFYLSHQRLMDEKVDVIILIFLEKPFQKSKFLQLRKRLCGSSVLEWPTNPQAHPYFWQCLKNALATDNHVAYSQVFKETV
human TLR8, sequence (Q9NR97 27-1041): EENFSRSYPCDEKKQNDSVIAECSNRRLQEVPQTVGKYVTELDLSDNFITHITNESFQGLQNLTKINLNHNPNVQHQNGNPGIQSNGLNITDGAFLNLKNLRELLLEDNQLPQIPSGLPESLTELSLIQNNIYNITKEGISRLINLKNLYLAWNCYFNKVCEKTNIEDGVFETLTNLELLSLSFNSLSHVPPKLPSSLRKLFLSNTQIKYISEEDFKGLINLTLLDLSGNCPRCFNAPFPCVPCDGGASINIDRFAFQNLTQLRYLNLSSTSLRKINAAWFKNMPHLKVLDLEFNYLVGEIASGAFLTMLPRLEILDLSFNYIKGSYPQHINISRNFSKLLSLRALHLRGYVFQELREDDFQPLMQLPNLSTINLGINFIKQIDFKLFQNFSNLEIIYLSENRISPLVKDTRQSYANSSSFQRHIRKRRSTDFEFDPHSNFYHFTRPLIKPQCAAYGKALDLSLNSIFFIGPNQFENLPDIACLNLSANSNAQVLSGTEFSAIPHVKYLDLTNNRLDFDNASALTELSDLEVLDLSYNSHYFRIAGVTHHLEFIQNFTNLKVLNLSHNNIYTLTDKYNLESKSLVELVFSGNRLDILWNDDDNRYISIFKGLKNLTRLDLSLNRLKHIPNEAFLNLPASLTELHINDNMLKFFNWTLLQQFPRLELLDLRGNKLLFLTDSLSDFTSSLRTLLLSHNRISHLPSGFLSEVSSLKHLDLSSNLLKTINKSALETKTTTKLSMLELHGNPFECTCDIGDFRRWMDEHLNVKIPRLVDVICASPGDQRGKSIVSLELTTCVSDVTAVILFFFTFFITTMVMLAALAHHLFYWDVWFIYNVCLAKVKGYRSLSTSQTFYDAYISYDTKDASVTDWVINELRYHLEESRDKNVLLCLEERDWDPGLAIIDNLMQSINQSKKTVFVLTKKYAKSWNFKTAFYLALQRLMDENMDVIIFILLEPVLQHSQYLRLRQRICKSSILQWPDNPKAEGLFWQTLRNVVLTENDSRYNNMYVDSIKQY

Structure (SMILES)	IC50 (human TLR8; [1]) [nM]	IC50 (human TLR9; [2]) [nM]	IC50 (human TLR7; [3]) [nM]	IC50 (human TLR8; [7]) [nM]	IC50 (human TLR9; [8]) [nM]	IC50 (human TLR7; [9]) [nM]	other results
COc1cc(-c2[nH]c3ccc(C4CN(C(C)C)C4)nc3c2C(C)C)cn2ncnc12 [Example 655]	11	2070	1.4				
Cc1c(-c2[nH]c3ccc(N4CCN(C(=O)CN5CCCC5)[C@@H](C)C4)nc3c2C(C)C)cn2ncnc2c1C [Example 899]							IC50 (human TLR8; [4]): 1.7 nM; IC50 (human TLR9; [5]): 9780 nM; IC50 (human TLR7; [6]): 1 nM
COc1cc(-c2[nH]c3cc(C)c(C4CCC(N)CC4)nc3c2C(C)C)cn2ncnc12 (stereo not drawn) [Example 318]				2.1	1060	0.17	
Cc1c(-c2[nH]c3ccc(N4CCN(C(=O)CN5CC(C)(C)C5)CC4)nc3c2C(C)C)cn2ncnc2c1C [Example 915]							IC50 (human TLR8; [4]): 1 nM; IC50 (human TLR9; [5]): 11100 nM; IC50 (human TLR7; [6]): 2.3 nM
Cc1c(-c2[nH]c3ccc(C4CC(N(C)CCS(C)(=O)=O)C4)nc3c2C(C)C)cn2ncnc2c1C (stereo not drawn) [Example 621]	7.5	14700	7				
Cc1c(-c2[nH]c3ccc(N4CCN(C(=O)CN(C)C(C)(C)C)[C@H](C)C4)nc3c2C(C)C)cn2ncnc2c1C [Example 944]							IC50 (human TLR8; [4]): 4.9 nM; IC50 (human TLR9; [5]): 17100 nM; IC50 (human TLR7; [6]): 3.1 nM
Cc1c(-c2[nH]c3ccc(N4[C@@H]5CC[C@H]4CN(C(=O)CN4CCCC4)C5)nc3c2C(C)C)cn2ncnc2c1C [Example 921]							IC50 (human TLR8; [4]): 3.4 nM; IC50 (human TLR9; [5]): 5270 nM; IC50 (human TLR7; [6]): 0.61 nM
Cc1c(-c2[nH]c3ccc(C4CCC(N5CCC[C@@H]5CO)CC4)nc3c2C(C)C)cn2ncnc2c1C (stereo partly drawn) [Example 372]				7.6	1460	3.2	
COc1cc(-c2[nH]c3ccc(C4CCC(N(C)C5CC5)CC4)nc3c2C(C)C)cn2ncnc12 (stereo not drawn) [Example 171]				1.8	560	0.45	
Cc1cc(-c2[nH]c3ccc(C4CCN(CC#N)CC4)nc3c2C(C)C)cn2ncnc12 [Example 553]	3.2	537	0.63				
CNC(=O)CNC1CCC(c2ccc3[nH]c(-c4cc(OC)c5ncnn5c4)c(C(C)C)c3n2)C1 (stereo not drawn) [Example 10, 2-((3-(3-isopropyl-2-(8-methoxy-[1,2,4]triazolo[1,5-a]pyridin-6-yl)-1H-pyrrolo[3,2-b]pyridin-5-yl)cyclopentyl)amino)-N-methylacetamide]				5.3	1050	0.42	
CC(C)c1c(-c2cn(C)c3ncccc23)[nH]c2ccc(N3CC(N)C3)nc12 [Example 32]				6.9	1880	7.3	
Cc1c(-c2[nH]c3ccc(N4CCN(C(=O)CN5CCC5)C[C@@H]4C)nc3c2C(C)C)cn2ncnc2c1C [Example 824]							IC50 (human TLR8; [4]): 2.1 nM; IC50 (human TLR9; [5]): 5790 nM; IC50 (human TLR7; [6]): 1.6 nM
Cc1c(-c2[nH]c3ccc(C4CCC(N5CCC(F)(F)CC5)CC4)nc3c2C(C)C)cn2ncnc2c1C (stereo not drawn) [Example 385]				46	11200	22	
Cc1c(-c2[nH]c3ccc(N4CCN(C(=O)CN(C)CC5CC5)CC4)nc3c2C(C)C)cn2ncnc2c1C [Example 966]							IC50 (human TLR8; [4]): 1.3 nM; IC50 (human TLR9; [5]): 6020 nM; IC50 (human TLR7; [6]): 2.4 nM
COc1cc(-c2[nH]c3ccc(C4CN(C(=O)CN(C)C)C4)nc3c2C(C)C)cn2ncnc12 [Example 652]	22	1600	3				
Cc1c(-c2[nH]c3ccc(N4CCN(C(=O)CN5CCC6(CCOC6)C5)CC4)nc3c2C(C)C)cn2ncnc2c1C (stereo not drawn) [Example 947]							IC50 (human TLR8; [4]): 0.66 nM; IC50 (human TLR9; [5]): 8770 nM; IC50 (human TLR7; [6]): 1.9 nM

Structure (SMILES)	IC50 (human TLR8; [1]) [nM]	IC50 (human TLR9; [2]) [nM]	IC50 (human TLR7; [3]) [nM]	IC50 (human TLR8; [7]) [nM]	IC50 (human TLR9; [8]) [nM]	IC50 (human TLR7; [9]) [nM]	other results
Cc1c(-c2[nH]c3ccc(N4C[C@@H](C)N(C(=O)CN(C)C)C[C@H]4C)nc3c2C(C)C)cn2ncnc2c1C [Example 796]							IC50 (human TLR8; [4]): 15 nM; IC50 (human TLR9; [5]): 11300 nM; IC50 (human TLR7; [6]): 6 nM
Cc1cc(-c2[nH]c3ccc(C4CN(C)CCO4)nc3c2C(C)C)cn(C)c1=O (stereo not drawn) [Example 665]	17	> 50000	34				
COCCN(C1CCC(c2ccc3[nH]c(-c4cn5ncnc5c(C)c4C)c(C(C)C)c3n2)CC1)C1(CO)COC1 (stereo not drawn) [Example 500]	39	> 50000	19				
C#CCNC1CCC(c2ccc3[nH]c(-c4cn5ncnc5c(C)c4C)c(C(C)C)c3n2)CC1 (stereo not drawn) [Example 375]				4.4	2720	0.87	
Cc1c(-c2[nH]c3ccc(N4C[C@H](C)N(C(=O)CN(C)C(C)(C)C)C[C@H]4C)nc3c2C(C)C)cn2ncnc2c1C [Example 939]							IC50 (human TLR8; [4]): 9.8 nM; IC50 (human TLR9; [5]): 11900 nM; IC50 (human TLR7; [6]): 1.5 nM
COc1cc(-c2[nH]c3cc(C)c(C(=O)N(C)CCC(F)(F)F)nc3c2C(C)C)cn2ncnc12 [Example 734]	252	> 50000	26				
CC(C)c1c(-c2cn(CCS(C)(=O)=O)c3ncccc23)[nH]c2ccc(C3CCC(NC4CCOCC4)CC3)nc12 (stereo not drawn) [Example 266]				13	322	45	
Cc1c(-c2[nH]c3ccc(N4CCN(C(=O)CN(C(C)C)C(C)C)CC4)nc3c2C(C)C)cn2ncnc2c1C [Example 883]							IC50 (human TLR8; [4]): 2.3 nM; IC50 (human TLR9; [5]): 12500 nM; IC50 (human TLR7; [6]): 7.4 nM
CC(C)c1c(-c2cn(C)c3ncccc23)[nH]c2ccc(CCC3CN(CCS(C)(=O)=O)C3)nc12 [Example 684]	13	365	14				
Cc1c(-c2[nH]c3ccc(N4C[C@@H](C)N[C@@H](C)C4)nc3c2C(C)C)cn2ncnc2c1C [Example 976]							IC50 (human TLR8; [4]): 0.96 nM; IC50 (human TLR9; [5]): 13400 nM; IC50 (human TLR7; [6]): 2.5 nM
Cc1c(-c2[nH]c3ccc(C4CCC(N(C)CCC#N)CC4)nc3c2C(C)C)cn2ncnc2c1C (stereo not drawn) [Example 361]				1	1250	0.79	
Cc1c(-c2[nH]c3ccc(C4CCC(N(CC#N)CCS(C)(=O)=O)CC4)nc3c2C(C)C)cn2ncnc2c1C (stereo not drawn) [Example 457]	0.3	622	0.32				
Cc1c(-c2[nH]c3ccc(N4CC5(CN(CC(C)C)C5)C4)nc3c2C(C)C)cn2ncnc2c1C [Example 1009]							IC50 (human TLR8; [4]): 7.7 nM; IC50 (human TLR9; [5]): 2660 nM; IC50 (human TLR7; [6]): 4.5 nM
Cc1c(-c2[nH]c3ccc(C4CCC(N5CCC[C@@H]5CO)CC4)nc3c2C(C)C)cn2ncnc2c1C (stereo partly drawn) [Example 377]				2.2	767	2.1	
COc1cc(-c2[nH]c3cc(C)c(C4CCC(N(C)Cc5ncn(C)n5)CC4)nc3c2C(C)C)cn2ncnc12 (stereo not drawn) [Example 332]				88	2660	1.3	
CCN(CCN(C)C)C(=O)c1nc2c(C(C)C)c(-c3cc(OC)c4ncnn4c3)[nH]c2cc1C [Example 6, N-(2-(dimethylamino)ethyl)-N-ethyl-3-isopropyl-2-(8-methoxy-[1,2,4]triazolo[1,5-a]pyridin-6-yl)-6-methyl-1H-pyrrolo[3,2-b]pyridine-5-carboxamide]				3.2	625	0.3	
Cc1c(-c2[nH]c3ccc(C4CCC(N(CCC#N)C5CC5)CC4)nc3c2C(C)C)cn2ncnc2c1C (stereo not drawn) [Example 433]	60	> 50000	42				

Now from value to molecule, other results behind:

IC50 (human TLR8; [1]) [nM]	IC50 (human TLR9; [2]) [nM]	IC50 (human TLR7; [3]) [nM]	IC50 (human TLR8; [7]) [nM]	IC50 (human TLR9; [8]) [nM]	IC50 (human TLR7; [9]) [nM]	Structure (SMILES)	other results
> 3120	> 50000	> 3120				Cc1c(-c2[nH]c3ccc(CCC4CN(C5COC5)C4)nc3c2C(C)C)cn2ncnc2c1C [Example 686]	
3.5	18300	3.7				Cc1c(-c2[nH]c3ccc(C4CCC(N5CCN(C)C(=O)C5)CC4)nc3c2C(C)C)cn2ncnc2c1C (stereo not drawn) [Example 442]	
			2.9	> 50000	7.5	Cc1c(-c2[nH]c3ccc(N4CCCC(NC5COC5)C4)nc3c2C(C)C)cn2ncnc2c1C (stereo not drawn) [Example 86]	
0.89	6230	0.46				Cc1c(-c2[nH]c3ccc(N4C[C@@H](C)N(C(=O)CN5CCCC5)C[C@@H]4C)nc3c2C(C)C)cn2ncnc2c1C [Example 738, 1-((2R,5S)-4-(2-(7,8-dimethyl-[1,2,4]triazolo[1,5-a]pyridin-6-yl)-3-isopropyl-1H-pyrrolo[3,2-b]pyridin-5-yl)-2,5-dimethylpiperazin-1-yl)-2-(pyrrolidin-1-yl)ethan-1-one]	
			1.2	2970	2.3	CCN(CC)C1CCN(c2ccc3[nH]c(-c4cn5ncnc5c(C)c4C)c(C(C)C)c3n2)CC1 [Example 70]	
			0.96	8260	2.3	Cc1c(-c2[nH]c3ccc(N4CCN(C(=O)CNCCO)CC4)nc3c2C(C)C)cn2ncnc2c1C [Example 158]	
			5	24800	9.7	Cc1c(-c2[nH]c3ccc(N4CCCN(CC(=O)N(C)C)CC4)nc3c2C(C)C)cn2ncnc2c1C [Example 163]	
			0.28	9430	1.5	Cc1c(-c2[nH]c3ccc(N4CCN(C)CC4)nc3c2C(C)C)cn2ncnc2c1C [Example 96, 6-(3-isopropyl-5-(4-methylpiperazin-1-yl)-1H-pyrrolo[3,2-b]pyridin-2-yl)-7,8-dimethyl-[1,2,4]triazolo[1,5-a]pyridine]	
7.1	3060	2				CCN1CC2(C1)CN(c1ccc3[nH]c(-c4cn5ncnc5c(C)c4C)c(C(C)C)c3n1)C2 [Example 744, 6-(5-(6-ethyl-2,6-diazaspiro[3.3]heptan-2-yl)-3-isopropyl-1H-pyrrolo[3,2-b]pyridin-2-yl)-7,8-dimethyl-[1,2,4]triazolo[1,5-a]pyridine]	
